From patent US11505536B2, “Dihydroorotate dehydrogenase inhibitors” (Janssen Biotech, Inc., priority 2019, dated 2022)

Columns and labels:
[1] = system: MOLM-13 cells (human acute myeloid leukemia cells); test: MOLM-13 Cellular Assay; assay type: cell-based; settings: Homo sapiens, MOLM-13, 72 h, 72 hours exposure, cell viability by CellTiter-Glo
Procedure: The following assay is referred to herein as the “MOLM-13 Cellular Assay.” MOLM-13 cells (human acute myeloid leukemia cells) were obtained from DSMZ and were maintained in RPMI 1640+Glutamax+25 mM HEPES (Invitrogen, catalog number 72400) supplemented with 10% heat inactivated fetal bovine serum (FBS; Invitrogen, catalog number 16140). The day prior to assay set-up, cells were pelleted, resuspended in fresh media, counted, and cells were plated at 0.4×10^6 cell/mL in a T150 flask. On the day of the assay, cells were pelleted, resuspend in fresh media, counted and seeded at 5,000 cells/well in white opaque 96-well tissue culture treated microplates (Perkin Elmer, catalog number 6005680). Cells were exposed to different concentrations of test compounds at 37° C., 5% CO2 for 72 hours immediately after seeding. Cell viability was acquired on a Perkin Elmer Envision 2104 multilabel reader using the CellTiter-Glo assay (Promega) according to the manufacturer's instructions.

[2] = biological target: human DHODH (Homo sapiens (Human), UniProt Q02127); test: DHODH Enzymatic Assay; assay type: biochemical; settings: purified human DHODH, DCIP absorbance, end-point mode; read-out: hDHODH IC50
Sequence of human DHODH (Q02127 whole entry): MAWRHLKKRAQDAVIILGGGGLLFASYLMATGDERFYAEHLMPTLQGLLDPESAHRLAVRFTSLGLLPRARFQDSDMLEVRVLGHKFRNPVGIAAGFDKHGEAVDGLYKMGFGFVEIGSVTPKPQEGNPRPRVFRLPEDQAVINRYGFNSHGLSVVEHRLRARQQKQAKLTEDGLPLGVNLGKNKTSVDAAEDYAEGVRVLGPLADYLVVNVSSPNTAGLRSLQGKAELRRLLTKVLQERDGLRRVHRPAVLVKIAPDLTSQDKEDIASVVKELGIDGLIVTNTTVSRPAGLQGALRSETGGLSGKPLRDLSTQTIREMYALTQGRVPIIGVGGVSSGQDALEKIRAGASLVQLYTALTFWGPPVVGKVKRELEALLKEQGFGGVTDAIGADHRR
Procedure: The following assay is referred to herein as the “DHODH Enzymatic Assay.” To detect DHODH enzyme activities, dichloroindophenol (DCIP) is added as the final electron acceptor in the assay. DCIP can accept electrons from the reduced coenzyme Q generated in the assay, or from dihydroorotate (DHO) via FMN by binding presumably to the ubiquinone pocket. DCIP solutions are blue, with an intense absorbance around 600 nm, but becomes colorless upon reduction (J. Biol. Chem. (1986) 261, 11386). The assay buffer contained […], pH 7.5, 150 mM NaCl, 0.5 mM EDTA, and 0.1% Triton X-100 in MilliQ water. Substrate consisting of 20 mM DHO, 5 mM CoQ6, and 1 mM DCIP in assay buffer, initiates the reaction. The assay is run in end-point mode by quenching the reaction with the potent DHODH inhibitor brequinar. Absorbance measurements were obtained using the BMG Phera Star plate-reading spectrophotomer. Purified human DHODH was purchased from Proteros (cat. No. PR-0044). Chemicals were purchased from Sigma-Aldrich, Teknova, and Avanti Polar Lipids. Liquid handling was performed using Labcyte Echo and Formulatrix Tempest.

SMILES	IC50 [1]	IC50 [2]
CCC(C)c1cn(-c2c(F)cccc2Cl)c(=O)c2cc(F)c(-n3nc(CO)n(CC)c3=O)cc12 (racemic) [Example 48, Racemic-4-(sec-Butyl)-2-(2-chloro-6-fluorophenyl)-6-(4-ethyl-3-(hydroxymethyl)-5-oxo-4,5-dihydro-1H-1,2,4-triazol-1-yl)-7-fluoroisoquinolin-1(2H)-one]	0.6 nM	0.907 nM
CCn1c(CO)nn(-c2cc3c(C(C)C(F)(F)F)nn(-c4ccccc4C)c(=O)c3cc2F)c1=O (racemic) [Example 55, Racemic 6-(4-Ethyl-3-(hydroxymethyl)-5-oxo-4,5-dihydro-1H-1,2,4-triazol-1-yl)-7-fluoro-2-(o-tolyl)-4-(1,1,1-trifluoropropan-2-yl)phthalazin-1(2H)-one]	0.5 nM	1.2 nM
CCn1c(CO)nn(-c2cc3c(C(C)C(F)(F)F)cn(-c4ccccc4C)c(=O)c3cc2F)c1=O (racemic) [Example 88, Racemic-6-(4-Ethyl-3-(hydroxymethyl)-5-oxo-4,5-dihydro-1H-1,2,4-triazol-1-yl)-7-fluoro-2-(o-tolyl)-4-(1,1,1-trifluoropropan-2-yl)isoquinolin-1(2H)-one]	0.9 nM	0.52 nM
CCn1c(CO)nn(-c2cc3c(C(C)C)cn([C@H]4CC[C@@H](OC)C4)c(=O)c3cc2F)c1=O (racemic) [Example 119, Racemic 6-(4-Ethyl-3-(hydroxymethyl)-5-oxo-4,5-dihydro-1H-1,2,4-triazol-1-yl)-7-fluoro-4-isopropyl-2-((cis)-3-methoxycyclopentyl)isoquinolin-1(2H)-one]	10 nM	10.1 nM
CCn1c(CO)nn(-c2cc3c(C(C)C)cn([C@H]4CCC[C@@H](OC)C4)c(=O)c3cc2F)c1=O (racemic) [Example 127, Racemic 6-(4-Ethyl-3-(hydroxymethyl)-5-oxo-4,5-dihydro-1H-1,2,4-triazol-1-yl)-7-fluoro-4-isopropyl-2-((cis)-3-methoxycyclohexyl)isoquinolin-1(2H)-one]	> 100 nM	181 nM
CCn1c(CO)nn(-c2cc3c([C@H](C)C(F)(F)F)nn(-c4ccccc4C)c(=O)c3cc2F)c1=O (single isomer, unassigned) [Example 56, (S*)-6-(4-Ethyl-3-(hydroxymethyl)-5-oxo-4,5-dihydro-1H-1,2,4-triazol-1-yl)-7-fluoro-2-(o-tolyl)-4-(1,1,1-trifluoropropan-2-yl)phthalazin-1(2H)-one]	2 nM	2.31 nM
CCn1c(CO)nn(-c2cc3c([C@@H](C)C(F)(F)F)nn(-c4ccccc4C)c(=O)c3cc2F)c1=O (single isomer, unassigned) [Example 57, (R*)-6-(4-Ethyl-3-(hydroxymethyl)-5-oxo-4,5-dihydro-1H-1,2,4-triazol-1-yl)-7-fluoro-2-(o-tolyl)-4-(1,1,1-trifluoropropan-2-yl)phthalazin-1(2H)-one]	1 nM	1.15 nM
CCn1c(CO)nn(-c2cc3c(C(C)C)cn([C@@H]4CCCC[C@H]4C)c(=O)c3cc2F)c1=O (stereo in doubt) [Example 120, 6-(4-Ethyl-3-(hydroxymethyl)-5-oxo-4,5-dihydro-1H-1,2,4-triazol-1-yl)-7-fluoro-4-isopropyl-2-((1R*,2R*)-2-methylcyclohexyl)isoquinolin-1(2H)-one]	1 nM	1.68 nM
CCn1c(CO)nn(-c2cc3c(C(C)C)cn([C@H]4CCCC[C@@H]4C)c(=O)c3cc2F)c1=O (stereo in doubt) [Example 121, 6-(4-Ethyl-3-(hydroxymethyl)-5-oxo-4,5-dihydro-1H-1,2,4-triazol-1-yl)-7-fluoro-4-isopropyl-2-((1S*,2S*)-2-methylcyclohexyl)isoquinolin-1(2H)-one]	4 nM	7.41 nM
CCn1c(CO)nn(-c2cc3c(C(C)C)cn([C@@H]4CCC[C@H]4C)c(=O)c3cc2F)c1=O (stereo in doubt) [Example 123, 6-(4-Ethyl-3-(hydroxymethyl)-5-oxo-4,5-dihydro-1H-1,2,4-triazol-1-yl)-7-fluoro-4-isopropyl-2-((1R*,2R*)-2-methylcyclopentyl)isoquinolin-1(2H)-one]	9 nM	16.8 nM
CCn1c(CO)nn(-c2cc3c(C(C)C)cn([C@H]4CCC[C@@H]4C)c(=O)c3cc2F)c1=O (stereo in doubt) [Example 124, 6-(4-Ethyl-3-(hydroxymethyl)-5-oxo-4,5-dihydro-1H-1,2,4-triazol-1-yl)-7-fluoro-4-isopropyl-2-((1S*,2S*)-2-methylcyclopentyl)isoquinolin-1(2H)-one]	0.9 nM	1.36 nM
CCn1c(CO)nn(-c2cc3c(C(C)C)cn([C@@H]4CCC[C@@H]4C)c(=O)c3cc2F)c1=O (stereo in doubt) [Example 125, 6-(4-Ethyl-3-(hydroxymethyl)-5-oxo-4,5-dihydro-1H-1,2,4-triazol-1-yl)-7-fluoro-4-isopropyl-2((1R*,2S*)-2-methylcyclopentyl)isoquinolin-1(2H)-one]	6 nM	15.5 nM
CCn1c(CO)nn(-c2ccc3c(=O)n(-c4cccc(F)c4)cc(C(C)(C)O)c3c2)c1=O [Example 25, 6-(4-Ethyl-3-(hydroxymethyl)-5-oxo-4,5-dihydro-1H-1,2,4-triazol-1-yl)-2-(3-fluorophenyl)-4-(2-hydroxypropan-2-yl)isoquinolin-1(2H)-one]	–	4260 nM
C=C(C)c1nn(-c2c(F)cccc2Cl)c(=O)c2cc(F)c(-n3nc(CO)n(CC)c3=O)cc12 [Example 27, 2-(2-Chloro-6-fluorophenyl)-6-(4-ethyl-3-(hydroxymethyl)-5-oxo-4,5-dihydro-1H-1,2,4-triazol-1-yl)-7-fluoro-4-(prop-1-en-2-yl)phthalazin-1(2H)-one]	–	0.32 nM
C=C(C)c1nn(-c2c(F)cccc2Cl)c(=O)c2cc(-n3nc(CO)n(CC)c3=O)c(F)cc12 [Example 28, 2-(2-Chloro-6-fluorophenyl)-7-(4-ethyl-3-(hydroxymethyl)-5-oxo-4,5-dihydro-1H-1,2,4-triazol-1-yl)-6-fluoro-4-(prop-1-en-2-yl)phthalazin-1(2H)-one]	–	5.03 nM
C=C(C)c1nn(-c2c(F)cccc2Cl)c(=O)c2cc(OC)c(-n3nc(CO)n(CC)c3=O)cc12 [Example 29, 2-(2-Chloro-6-fluorophenyl)-6-(4-ethyl-3-(hydroxymethyl)-5-oxo-4,5-dihydro-1H-1,2,4-triazol-1-yl)-7-methoxy-4-(prop-1-en-2-yl)phthalazin-1(2H)-one]	–	82.6 nM
C=C(C)c1nn(-c2c(F)cccc2Cl)c(=O)c2cc(-n3nc(CO)n(CC)c3=O)c(OC)cc12 [Example 30, 2-(2-Chloro-6-fluorophenyl)-7-(4-ethyl-3-(hydroxymethyl)-5-oxo-4,5-dihydro-1H-1,2,4-triazol-1-yl)-6-methoxy-4-(prop-1-en-2-yl)phthalazin-1(2H)-one]	–	3480 nM
C=C(C)c1cn(-c2cc(F)ccc2C)c(=O)c2cc(F)c(-n3nc(CO)n(CC)c3=O)cc12 [Example 82, 6-(4-Ethyl-3-(hydroxymethyl)-5-oxo-4,5-dihydro-1H-1,2,4-triazol-1-yl)-7-fluoro-2-(5-fluoro-2-methylphenyl)-4-(prop-1-en-2-yl)isoquinolin-1(2H)-one]	–	0.249 nM
CCn1c(CO)nn(-c2cc3c(C(C)C)cn(-c4cccnc4OC)c(=O)c3cc2F)c1=O [Example 90, 6-(4-Ethyl-3-(hydroxymethyl)-5-oxo-4,5-dihydro-1H-1,2,4-triazol-1-yl)-7-fluoro-4-isopropyl-2-(2-methoxypyridin-3-yl)isoquinolin-1(2H)-one]	–	20.7 nM
CCn1c(CO)nn(-c2cc3c(C(C)C)cn(-c4ccccc4Cl)c(=O)c3cc2F)c1=O [Example 117, 2-(2-Chlorophenyl)-6-(4-ethyl-3-(hydroxymethyl)-5-oxo-4,5-dihydro-1H-1,2,4-triazol-1-yl)-7-fluoro-4-isopropylisoquinolin-1(2H)-one]	0.3 nM	–
CCn1c(CO)nn(-c2nc3c(C(C)C)cn(-c4ccccc4C(F)(F)F)c(=O)c3cc2F)c1=O [Example 133, 2-(4-Ethyl-3-(hydroxymethyl)-5-oxo-4,5-dihydro-1H-1,2,4-triazol-1-yl)-3-fluoro-8-isopropyl-6-(2-(trifluoromethyl)phenyl)-1,6-naphthyridin-5(6H)-one]	2 nM	–
CCn1c(CO)nn(-c2cc3c(C(C)C)cn(-c4nc(C)ccc4C)c(=O)c3cc2F)c1=O [Example 134, 2-(3,6-Dimethylpyridin-2-yl)-6-(4-ethyl-3-(hydroxymethyl)-5-oxo-4,5-dihydro-1H-1,2,4-triazol-1-yl)-7-fluoro-4-isopropylisoquinolin-1(2H)-one]	8 nM	–
